Assay results as given in patent US12337005B2, “Methods of treating thrombosis” (UNIVERSITY OF IOWA RESEARCH FOUNDATION, priority 2020, dated 2025).

What was measured:
PKM2 dimers = target: T1, PKM2 dimers (Mus musculus, UniProt P52480); assay: Native Western blot of PKM2 dimer and tetramer in stimulated mouse platelets; type: cell-based; conditions: mouse platelets stimulated with convulxin or thrombin
T1 construct: PKM2 dimer and tetramer expression in platelets pre-treated with vehicle or ML265; endogenous in cells; host or cells: mouse platelets
T1 sequence (P52480 2-531 limits assumed): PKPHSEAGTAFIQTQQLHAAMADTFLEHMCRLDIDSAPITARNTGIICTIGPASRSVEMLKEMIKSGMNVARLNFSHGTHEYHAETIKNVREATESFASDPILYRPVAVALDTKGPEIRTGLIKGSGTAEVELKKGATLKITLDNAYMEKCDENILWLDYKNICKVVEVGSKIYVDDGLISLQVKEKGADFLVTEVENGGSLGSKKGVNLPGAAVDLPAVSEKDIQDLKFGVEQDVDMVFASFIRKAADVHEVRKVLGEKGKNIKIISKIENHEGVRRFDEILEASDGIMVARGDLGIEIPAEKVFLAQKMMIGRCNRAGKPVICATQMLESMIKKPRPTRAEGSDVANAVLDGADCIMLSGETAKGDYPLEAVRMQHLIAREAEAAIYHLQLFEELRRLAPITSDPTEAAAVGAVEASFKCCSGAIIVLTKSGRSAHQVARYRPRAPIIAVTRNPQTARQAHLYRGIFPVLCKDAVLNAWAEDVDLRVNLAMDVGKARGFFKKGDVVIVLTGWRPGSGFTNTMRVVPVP
Procedure: Mouse platelets were prepared. Blood from anesthetized mice was drawn from the retro-orbital plexus and collected in 1.5 mL polypropylene tubes containing 300 μL of enoxaparin (0.3 mg/mL; Sanofi-Aventis, US LLC). The blood was centrifuged at 100 g for 5 minutes, and the platelet-rich plasma (PRP) was collected in a fresh tube. To prevent platelet activation, PRP was incubated with PGI2 (2 μg/mL) at 37° C. for 5 minutes. PRP was further centrifuged at 600 g for 5 minutes. The obtained pellets were suspended in 1 mL modified Tyrode-N-2-hydroxyethylpiperazine-N′-2-ethane sulfonic acid (HEPES) buffer (137 mM NaCl, 0.3 mM Na2HPO4, 2 mM KCl, 12 mM NaHCO3, 5 mM N-2-hydroxyethylpiperazine-N′-2-ethane sulfonic acid, 5 mM glucose, 0.35% bovine serum albumin, pH 7.2). The washing step was repeated twice with Tyrode's to remove PGI2, and platelets were fluorescently labeled with calcein green (wherever required), AM (2.5 μg/mL; Molecular Probes) for 10 minutes at 37° C.
Platelet proteins were separated on 4-20% SDS-PAGE (sodium dodecyl sulfate-polyacrylamide gel electrophoresis) gradient gels and electrophoretic transferred to PVDF (polyvinylidene fluoride) membrane by using Bio-Rad western blotting system. For PKM2 dimer and tetramer study 6% native gels are used. […] Blots were developed using enhanced chemiluminescence and quantified using Image J software from NIH (Bethesda, MD, USA).

human platelets [1] = assay: Lactate measurement, human platelets; type: cell-based; conditions: human platelets stimulated with convulxin or thrombin; ML265 pre-treated (50 or 100 μM)
Procedure: Washed platelets (5×10^8 platelets/mL) in DMEM (5 mM HEPES, 25 mM glucose, 1 mM pyruvate and 2 mM glutamine) were pre-treated with 50 or 100 μM of ML265 or vehicle (DMSO) for 10 mins and stimulated by convulxin (200 ng/ml) for 1 hr. Cells were centrifuged and supernatant was collected. Levels of L-lactate in supernatant were determined using a glycolysis cell based assay kit (Cayman; Item No. 600450) according to the manufacturer's instructions.

human platelets [2] = assay: Thromboxane (TxB2) assay, human platelets; type: cell-based; conditions: convulxin-stimulated human platelets pre-treated with ML265
Procedure: The TxB2 assay was done. Briefly, PRP or washed platelets (2×10^8 platelets/mL) was stimulated with convulxin or thrombin for 3 minutes utilizing an aggregometer, and the reaction was stopped by quickly freezing the sample in a dry ice-methanol bath. Before performing the TXB2 measurement assay, samples were thawed and centrifuged at 15,000 g for 3 minutes. The supernatants were diluted 1:50 with assay buffer and levels of TxB2 (a stable metabolite of TxA2) were determined in triplicate using an immunoassay kit (Abcam Thromboxane B2 enzyme-linked immunosorbent assay kit) according to the manufacturer's instructions.

murine platelets [3] = assay: In vitro platelet aggregation, mouse platelet-rich plasma; type: cell-based; conditions: convulxin, collagen, PAR4 and ADP, ML265 50 and 100 μM
Procedure: (§1) Platelet rich plasma (PRP) or washed platelets (2×10^8/ml) treated with vehicle (DMSO) or ML265 (50 and 100 μM) were stirred (1200 rpm) at 37° C. for 2 min in a whole blood/optical lumi-aggregometer (Chrono-log; model 700-2) before the addition of agonists (convulxin, collagen, thrombin, PAR4, TRAP (PAR1 agonist) or adenosine diphosphate [ADP]). Aggregation was measured as percent change in light transmission, where 100% refers to transmittance through the blank sample (PRP/Buffer). Platelet dense granule secretion was determined by measuring the release of ATP using luciferin-luciferase reagent. To examine the effect of ML265 on ATP secretion, washed platelets were pretreated with vehicle (DMSO) or ML265 (50 and 100 μM) for 10 minutes before stimulation with various agonists. ATP release was performed in a lumi-aggregometer (Chrono-log; model 700-2) at 37° C.

human platelets [4] = assay: P-selectin expression (α-granule secretion), human platelets; type: cell-based; conditions: stimulus-activated human platelets pretreated with ML265
Procedure: (§2) Platelets (1×10^8 cells in 100 μl) were pre-incubated for 10 min either in presence or absence of ML265 (50 and 100 μM) then stimulated by convulxin or TRAP without stirring. Following this, platelets were labeled with PE-labeled anti-CD61 antibody and FITC conjugated anti-CD62P antibody. The platelet samples were incubated for 30 min in the dark at room temperature and analyzed on the flow cytometer (FACS Calibur, Becton Dickinson). An amorphous region (gate) was drawn to differentiate the platelets from the noise and multi-platelet particles. After compensation for FITC and PE, CD61-positive 10,000 events were collected for each sample.

murine platelets [5] = assay: P-selectin expression (α-granule secretion), mouse platelets; type: cell-based; conditions: stimulus-activated mouse platelets pretreated with ML265
Procedure: as §2

murine platelets [6] = assay: ATP secretion from dense granules, mouse platelets; type: cell-based; conditions: stimulus-activated mouse platelets pretreated with ML265
Procedure: as §1

male mice = assay: Tail bleeding assay; type: in vivo, mouse; conditions: male mice pretreated with ML265
Procedure: Initially ML265 dissolved in DMSO was mixed with 200 μl of deionized water and administered intra-peritoneally to the at a dose of 25 and 50-mg/Kg body weight. In vivo thrombosis and tail transection assays were performed 10 minutes after administration of ML265 or vehicle infusion by a person who was blinded to the drug and vehicle infusion.
Tail-transection bleeding time was measured. Briefly, mice (approximately 8 weeks of age) were anesthetized with 100-mg/kg ketamine and 10-mg/kg xylazine and placed on a heating pad warmed at 37° C., and a 3 mm segment of the tail was amputated with a sharp scalpel blade. The tail was immediately immersed in saline (at 37° C.), and the time taken for the stream of blood to stop for more than 30 seconds was defined as the bleeding time.

[7] = cited from earlier work

## Cn1c2cc([S+](C)[O-])sc2c2cnn(Cc3cccc(N)c3)c(=O)c21 (stereo not drawn) [ML265, 6-[(3-aminophenyl)methyl]-4,6-dihydro-4-methyl-2-(methylsulfinyl)-5H-thieno[2′,3′:4,5]pyrrolo[2,3-d]pyridazine-5-one]
PKM2 dimers
  PKM2 dimer formation: limited
Human platelets [1]
  lactate production: significantly decreased
Human platelets [2]
  levels of TxB2 (stable metabolite of TxA2): reduced
Murine platelets [3]
  stimulus-dependent platelet aggregation: reduced
Human platelets [4]
  α-granule secretion (P-selectin exposure): significant decrease
Murine platelets [5]
  α-granule secretion (P-selectin exposure): significant decrease
Murine platelets [6]
  dense-granule secretion (ATP release): significant decrease
Male mice
  mean time to cessation of bleeding (tail-transection bleeding time) vs vehicle: comparable
[7]
  half-life: short
